Format in all cases: functional
For test [1], the system named is Mycolicibacterium fortuitum. In words: Antimycobacterial activity against pyrazinamide-resistant Mycobacterium fortuitum ATCC 49601 assessed as growth inhibition after 24 hrs to 2 weeks by microbroth dilution method.
In test [2] the test system is Mycolicibacterium fortuitum. Kind of test: Antimycobacterial activity against pyrazinamide-resistant Mycobacterium fortuitum ATCC 49403 assessed as growth inhibition after 24 hrs to 2 weeks by microbroth dilution method.
The subject of test [3] is Mycobacterium kansasii. Kind of test: Antimycobacterial activity against pyrazinamide-resistant Mycobacterium kansasii assessed as growth inhibition after 24 hrs to 2 weeks by microbroth dilution method.
For test [4], the system named is Mycobacterium tuberculosis. Kind of test: Antimycobacterial activity against pyrazinamide-susceptible Mycobacterium tuberculosis ATCC 35801 assessed as growth inhibition after 24 hrs to 2 weeks by microbroth dilution method.
In test [5] the test system is Mycobacterium tuberculosis. In words: Antimycobacterial activity against pyrazinamide-susceptible Mycobacterium tuberculosis ATCC 27294 assessed as growth inhibition after 24 hrs to 2 weeks by microbroth dilution method.

Converted amounts (≈) assume the structure as drawn.

The results in this text go back to ChEMBL document CHEMBL2396653, “Synthesis and antimycobacterial evaluation of N-substituted 5-chloropyrazine-2-carboxamides” (Bioorg Med Chem Lett, 2013).

`NC(=O)c1cnc(Cl)cn1`: the minimal inhibitory concentration (MIC) in test [1] stood at 8 µg/mL (≈ 50.8 µM); in test [2], 8 µg/mL (≈ 50.8 µM); in test [3] it was 8 µg/mL (≈ 50.8 µM); in test [4], 16 µg/mL (≈ 102 µM); in test [5], 16 µg/mL (≈ 102 µM).
